# Measured values from US12065433B2, “Positive allosteric modulators of the muscarinic acetylcholine receptor M1” (Vanderbilt University, priority 2018, dated 2024).
# pEC50: −log10 of the molar value.
# Target: T1, human mAChR M1 (Homo sapiens, UniProt P11229)
# T1 sequence (P11229 1-460): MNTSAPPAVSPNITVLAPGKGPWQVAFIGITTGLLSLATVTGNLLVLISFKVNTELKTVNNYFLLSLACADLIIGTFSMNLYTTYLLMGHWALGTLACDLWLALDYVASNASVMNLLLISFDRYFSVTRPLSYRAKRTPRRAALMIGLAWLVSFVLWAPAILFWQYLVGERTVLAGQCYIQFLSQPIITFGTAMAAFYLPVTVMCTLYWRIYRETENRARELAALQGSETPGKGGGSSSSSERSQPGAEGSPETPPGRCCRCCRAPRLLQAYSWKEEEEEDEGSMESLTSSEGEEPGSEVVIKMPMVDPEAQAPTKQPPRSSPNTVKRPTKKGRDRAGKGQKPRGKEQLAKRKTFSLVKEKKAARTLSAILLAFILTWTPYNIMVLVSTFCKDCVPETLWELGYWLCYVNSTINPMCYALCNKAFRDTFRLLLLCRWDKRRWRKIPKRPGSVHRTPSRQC
# Assay: mAChR M1 cell-based functional assay (calcium mobilization, PAM mode)
# Settings: CHO-K1 cells stably expressing hM1, calcium flux (Fluo-4); for pEC50: concentration-dependent increase in the EC20 acetylcholine response; for Emax: potentiation of EC20 acetylcholine response
# Text: Chinese hamster ovary (CHO-K1) cells stably expressing rat (r)M1 were purchased from the American Type Culture Collection and cultured according to their indicated protocol. CHO cells stably expressing human (h)M2, hM3, and hM5 were described previously (Levey, et al., 1991); hM1 and hM4 cDNAs were purchased from Missouri S&T cDNA Resource; rM4 cDNA was provided by T. I. Bonner (National Institutes of Health, Bethesda, MD). rM2 and rM3 were cloned from a rat brain cDNA library and sequence verified. hM1, rM2, rM3, hM4, and rM4 cDNAs were used to stably transfect CHO-K1 cells purchased from the American Type Culture Collection using Lipofectamine2000. To make stable rM2, hM2, rM3, hM4, and rM4 cell lines for use in calcium mobilization assays, these cells also were stably transfected with a chimeric G-protein (Gqi5) (provided by B. R. Conklin, University of California, San Francisco) using Lipofectamine 2000. rM1, hM1, rM3, hM3, rM5, and hM5 cells were grown in Ham's F-12 medium containing 10% heat-inactivated fetal bovine serum (FBS), 20 mM HEPES, and 50 μg/mL G418 sulfate. rM2-Gqi5, hM2-Gqi5, and hM4-Gqi5 cells were grown in the same medium also containing 500 μg/mL Hygromycin B. Stable rM4-Gqi5 cells were grown in DMEM containing 10% heat-inactivated FBS, 20 mM HEPES, 400 μg/mL G418 sulfate, and 500 μg/mL Hygromycin B.
# For high throughput measurement of agonist-evoked increases in intracellular calcium, CHO-K1 cells stably expressing muscarinic receptors were plated in growth medium lacking G418 and hygromycin at 15,000 cells/20 μL/well in Greiner 384-well black-walled, tissue culture (TC)-treated, clear-bottom plates (VWR). Cells were incubated overnight at 37° C. and 5% CO2. The next day, cells were washed using an ELX 405 (BioTek) with four washes (80 μL) of assay buffer then aspirated to 20 μL. Next, 20 μL of 16 μM Fluo-4/acetoxymethyl ester (Invitrogen, Carlsbad, CA) prepared as a 2.3 mM stock in DMSO and mixed in a 1:1 ratio with 10% (w/v) Pluronic F-127 and diluted in assay buffer was added to the wells and the cell plates were incubated for 50 min at 37° C. and 5% CO2. Dye was removed by washing with the ELX 405 (four […], washes of assay buffer) then aspirated to 20 μL. Compound master plates were formatted in an 11 point CRC format (1:3 dilutions) in 100% DMSO with a starting concentration of 10 mM using the BRAVO liquid handler (Agilent). Test compound CRCs were then transferred to daughter plates (240 nL) using the Echo acoustic plate reformatter (Labcyte, Sunnyvale, CA) and then diluted into assay buffer (40 μL) to a 2× stock using a Thermo Fisher Combi (Thermo Fisher Scientific, Waltham, MA).
# Calcium flux was measured using the Functional Drug Screening System (FDSS) 6000 (Hamamatsu Corporation, Tokyo, Japan) as an increase in the fluorescent static ratio. Compounds were applied to cells (20 μL, 2×) using the automated system of the FDSS 6000 at 4 s into the 300 s protocol and the data were collected at 1 Hz. At 144 s into the 300 s protocol, 10 μL of an EC20 concentration of the muscarinic receptor agonist acetylcholine was added (5×), followed by the addition of 12 μL an EC80 concentration of acetylcholine at the 230 s time point (5×). Agonist activity was analyzed as a concentration-dependent increase in calcium mobilization upon compound addition. Emax values for agonist activity are expressed relative to the maximum for acetylcholine. Positive allosteric modulator activity was analyzed as a concentration-dependent increase in the EC20 acetylcholine response. Antagonist activity was analyzed as a concentration-dependent decrease in the EC80 acetylcholine response. Concentration-response curves were generated using a four-parameter logistical equation in XLfit curve fitting software (IDBS, Bridgewater, NJ) for Excel (Microsoft, Redmond, WA) or Prism (GraphPad Software, Inc., San Diego, CA). […]
pEC50,Emax [%],SMILES
,61,"CC(C)(O)CNC(=O)c1cc(Cc2ccc(-n3cccn3)cc2)cc2c1OCO2 [Compound 7, N-(2-hydroxy-2-methyl-propyl)-6-[(4-pyrazol-1-ylphenyl)methyl]-1,3-benzodioxole-4-carboxamide]"
6.04,81,"O=C(N[C@H]1CCOC[C@@H]1O)c1cc(Cc2ccc(-n3cccn3)cc2)cc2c1OCO2 [Compound 1, N-[(3R,4S)-3-hydroxytetrahydropyran-4-yl]-6-[(4-pyrazol-1-ylphenyl)methyl]-1,3-benzodioxole-4-carboxamide]"
5.98,76,"O=C(N[C@H]1CCCCC[C@@H]1O)c1cc(Cc2ccc(-n3cccn3)cc2)cc2c1OCO2 [Compound 6, N-[(1S,2S)-2-hydroxycycloheptyl]-6-[(4-pyrazol-1-ylphenyl)methyl]-1,3-benzodioxole-4-carboxamide]"
6.59,75,"Cc1c(Cc2ccc(-n3cccn3)cc2)cc(C(=O)N[C@H]2CCOC[C@@H]2O)c2c1OCO2 [Compound 18, N-[(3R,4S)-3-hydroxytetrahydropyran-4-yl]-7-methyl-6-[(4-pyrazol-1-ylphenyl)methyl]-1,3-benzodioxole-4-carboxamide]"
,59,"O=C(NC1CC2(COC2)C1)c1cc(Cc2ccc(-n3cccn3)cc2)cc2c1OCO2 [Compound 3, N-(2-oxaspiro[3.3]heptan-6-yl)-6-[(4-pyrazol-1-ylphenyl)methyl]-1,3-benzodioxole-4-carboxamide]"
5.61,69,"O=C(N[C@H]1CCC[C@@H]1O)c1cc(Cc2ccc(-n3cccn3)cc2)cc2c1OCO2 [Compound 4, N-[(1S,2S)-2-hydroxycyclopentyl]-6-[(4-pyrazol-1-ylphenyl)methyl]-1,3-benzodioxole-4-carboxamide]"
5.44,55,"O=C(N[C@H]1CC[C@@H]1O)c1cc(Cc2ccc(-n3cccn3)cc2)cc2c1OCO2 [Compound 5, N-[(1S,2S)-2-hydroxycyclobutyl]-6-[(4-pyrazol-1-ylphenyl)methyl]-1,3-benzodioxole-4-carboxamide]"
6.10,82,"O=C(N[C@H]1CCCC[C@@H]1O)c1cc(Cc2ccc(-n3cccn3)cc2)cc2c1OCO2 [Compound 2, N-[(1S,2S)-2-hydroxycyclohexyl]-6-[(4-pyrazol-1-ylphenyl)methyl]-1,3-benzodioxole-4-carboxamide]"
5.13,67,"CC1(C)COCCC1NC(=O)c1cc(Cc2ccc(-n3cccn3)cc2)cc2c1OCO2 (centres unmarked) [Compound 8, N-(3,3-dimethyltetrahydropyran-4-yl)-6-[(4-pyrazol-1-ylphenyl)methyl]-1,3-benzodioxole-4-carboxamide]"
6.38,78,"Cc1c(Cc2ccc(-n3cccn3)cc2)cc(C(=O)N[C@H]2CCCC[C@@H]2O)c2c1OCO2 [Compound 19, N-[(1S,2S)-2-hydroxycyclohexyl]-7-methyl-6-[(4-pyrazol-1-ylphenyl)methyl]-1,3-benzodioxole-4-carboxamide]"

# More lines, now with the values behind:
SMILES,pEC50,Emax [%]
"Cn1ccc(-c2ccc(Cc3cc4c(c(C(=O)N[C@H]5CCCC[C@@H]5O)c3)OCO4)cn2)n1 [Compound 11, N-[(1S,2S)-2-hydroxycyclohexyl]-6-[[6-(1-methylpyrazol-3-yl)-3-pyridyl]methyl]-1,3-benzodioxole-4-carboxamide]",6.09,76
"Cc1c(Cc2ccc(-c3ccn(C)n3)cc2)cc(C(=O)N[C@H]2CCCC[C@@H]2O)c2c1OCO2 [Compound 21, N-[(1S,2S)-2-hydroxycyclohexyl]-7-methyl-6-[[4-(1-methylpyrazol-3-yl)phenyl]methyl]-1,3-benzodioxole-4-carboxamide]",6.39,80
"[2H]C1([2H])Oc2c(C(=O)N[C@H]3CCCC[C@@H]3O)cc(Cc3ccc(-n4cccn4)cc3)c(C)c2O1 [Compound 23, 6-(4-(1H-pyrazol-1-yl)benzyl)-N-((1S,2S)-2-hydroxycyclohexyl)-7-methylbenzo[d][1,3]dioxole-2,2-d2-4-carboxamide]",6.68,75
"[2H]C1([2H])Oc2c(C(=O)N[C@H]3CCC[C@@H]3O)cc(Cc3ccc(-n4cccn4)cc3)c(C)c2O1 [Compound 24, 6-(4-(1H-pyrazol-1-yl)benzyl)-N-((1S,2S)-2-hydroxycyclopentyl)-7-methylbenzo[d][1,3]dioxole-2,2-d2-4-carboxamide]",6.00,70
"Cc1nc(-c2ccc(Cc3cc4c(c(C(=O)N[C@H]5CCCC[C@@H]5O)c3)OCO4)cc2)co1 [Compound 17, N-[(1S,2S)-2-hydroxycyclohexyl]-6-[[4-(2-methyloxazol-4-yl)phenyl]methyl]-1,3-benzodioxole-4-carboxamide]",5.94,66
"Cc1nc(-c2ccc(Cc3cc4c(c(C(=O)N[C@H]5CCOC[C@@H]5O)c3)OCO4)cc2)co1 [Compound 16, N-[(3R,4S)-3-hydroxytetrahydropyran-4-yl]-6-[[4-(2-methyloxazol-4-yl)phenyl]methyl]-1,3-benzodioxole-4-carboxamide]",5.74,78
"[2H]C1([2H])Oc2c(C(=O)N[C@H]3CCOC[C@@H]3O)cc(Cc3ccc(-n4cccn4)cc3)c(C)c2O1 [Compound 22, 6-(4-(1H-pyrazol-1-yl)benzyl)-N-((3R,4S)-3-hydroxytetrahydro-2H-pyran-4-yl)-7-methylbenzo[d][1,3]dioxole-2,2-d2-4-carboxamide]",7.36,72
"Cc1c(Cc2ccc(-c3ccn(C)n3)cc2)cc(C(=O)N[C@H]2CCOC[C@@H]2O)c2c1OCO2 [Compound 20, N-[(3R,4S)-3-hydroxytetrahydropyran-4-yl]-7-methyl-6-[[4-(1-methylpyrazol-3-yl)phenyl]methyl]-1,3-benzodioxole-4-carboxamide]",6.48,88
"Cn1ccc(-c2ccc(Cc3cc4c(c(C(=O)NC5CCOCC5)c3)OCO4)cn2)n1 [Compound 15, 6-[[6-(1-methylpyrazol-3-yl)-3-pyridyl]methyl]-N-tetrahydropyran-4-yl-1,3-benzodioxole-4-carboxamide]",,49
"Cn1ccc(-c2ccc(Cc3cc4c(c(C(=O)N[C@H]5CC[C@@H]5O)c3)OCO4)cn2)n1 [Compound 13, N-[(1S,2S)-2-hydroxycyclobutyl]-6-[[6-(1-methylpyrazol-3-yl)-3-pyridyl]methyl]-1,3-benzodioxole-4-carboxamide]",,65
"Cn1ccc(-c2ccc(Cc3cc4c(c(C(=O)N[C@H]5CCCCC[C@@H]5O)c3)OCO4)cn2)n1 [Compound 10, N-[(1S,2S)-2-hydroxycycloheptyl]-6-[[6-(1-methylpyrazol-3-yl)-3-pyridyl]methyl]-1,3-benzodioxole-4-carboxamide]",5.92,74
